Assay in all cases: Microplate microdilution growth inhibition (PIC, MIC, FIC-index)
Type in all cases: cell-based

For assay [1], the system named is BSBL Escherichia coli P933. On the procedure: (§1) The six strains tested in this study are purified clinical isolates identified in the bacteriology laboratory of the Hassan II university teaching hospital center (CHU, Fes, Morocco). Three of the six bacterial strains tested are strains of BSBL Escherichia coli (P956, P933 and P7847) and the other three bacterial strains tested are strains of BSBL Klebsiella pneumoniae (H1878, H2001 and H1893).
(§2) For each test performed, precultures of the bacterial strains (frozen beforehand at −20° C.) for 24 h at 37° C. were prepared. From these precultures, bacterial inocula containing 2×10^7 CFU (colony-forming units)/ml were prepared, adjusting the optical density to 540 nm.
(§3) Amoxicillin (AMX) and cineole were supplied by Sigma Aldrich (France). A stock solution of AMX (400 μg/ml) was prepared after dissolving 40 mg of antibiotic in 100 ml of sterile distilled water. From this stock solution, serial dilutions were performed. The cineole concentrations used were prepared by emulsifying pure cineole in 0.2% (v/v) of agar-agar according to the method described by Remmal A et al. (J. Essent. Oil. Res [Book], 1993, 5: pages 1179-1184).
(§4) The partial inhibitory concentrations (PIC) are the concentrations of antibacterial agents which inhibit the growth of a given percentage (90%, 75%, 50%, 40% . . . ) of the bacterial population studied. The PICs of AMX and cineole with respect to the six bacterial strains used were determined via a microplate microdilution technique based on the monitoring of the bacterial growth by measuring the optical density (Casey J. T. et al., J. Microbiol. Meth [Book], 2004, 58: pages 327-334; Patton T et al., J. Microbiol. Meth [Book], 2006, 64: pages 84-95).
(§5) 96-well U-shaped sterile microplates with a capacity of 200 μl were used. For each microplate, two control rows were prepared: • A row containing 200 μl of the MH liquid medium (sterility control and negative control). • A row containing 150 μl of the MH liquid medium and 50 μl of the bacterial inoculum at 2×10^7 CFU/ml (positive control).
(§6) For AMX and cineole, two rows were prepared containing 100 μl of MH liquid medium, 50 μl of the bacteria inoculum at 2×10^7 CFU/ml and 50 μl of decreasing concentrations of antimicrobial agents. The AMX concentrations used are: 50-25-12.5-6.25-3.1-1.6-0.8-0.4-0.20-0.10-0.05-0.025 μg/ml. The cineole concentrations used are: 100-50-25-12.5-6.25-3.1-1.6-0.8-0.4-0.20-0.10-0.05 μl/ml. The optical densities (OD) were determined at 540 nm using a microplate spectrophotometer (Versamax, Molecular Devices, USA). The OD was measured at time t=0 and after 22 hours of incubation at 30° C. The percentage of inhibition of the antimicrobial agents with respect to each of the six strains was calculated according to Casey J. T. et al. (J. Microbiol. Meth. [Book], 2004, 58: pages 327-334) according to the following formula:
(§7) With ODT0=OD of the test well at time t=0, ODT22=OD of the test well after 22 h of incubation, ODC0=OD of the positive control well at time t=0, ODC22=OD of the positive control well after 22 h of incubation.
(§8) After having determined the PICs of AMX and cineole alone, the antibacterial power of the combination of AMX and cineole was evaluated. The same technique of microplate microdilution was used. The AMX-cineole combinations were prepared in sterile tubes as follows: • AMX 50% PIC+cineole 40% PIC • AMX 50% PIC+cineole 30% PIC • AMX 50% PIC+cineole 20% PIC • AMX 25% PIC+cineole 40% PIC • AMX 25% PIC+cineole 30% PIC • AMX 25% PIC+cineole 20% PIC.
(§9) The fractional inhibitory concentration index (FIC-index) expressing the degree of synergism of the AMX-cineole combination was calculated according to the following formula (Odds F. C. et al., J. Antimicrob. Chemoth. [Book], 2003, 52: page 1).
(§10) The AMX-cineole combination is considered: • Synergistic when the FIC-index is ≤0.5 • Additive when 0.5<FIC-index <1 • Indifferent when 1<FIC-index <2 • Antagonistic when FIC-index >2. Results

The test system of assay [2] is BSBL Escherichia coli P956. The method, then:
as §1, §2, §3, §4, §5, §6, §7, §8, §9, §10

The subject of assay [3] is BSBL Klebsiella pneumoniae H2001. The method, then:
as §1, §2, §3, §4, §5, §6, §7, §8, §9, §10

Assay [4] concerns BSBL Klebsiella pneumoniae H1878. On the procedure:
as §1, §2, §3, §4, §5, §6, §7, §8, §9, §10

Assay [5] has as its system BSBL Escherichia coli P7847. On the procedure: as §1, §2, §3, §4, §5, §6, §7, §8, §9, §10
In assay [6] the test system is BSBL Klebsiella pneumoniae H1893. On the procedure:
as §1, §2, §3, §4, §5, §6, §7, §8, §9, §10

[7] abbreviates: cineole alone, Escherichia coli P933.
Where [8] appears, read: cineole alone, Escherichia coli P956.
The mark [9] stands for this setting: cineole alone, Klebsiella pneumoniae H2001.
The mark [10] stands for this setting: cineole alone, Klebsiella pneumoniae H1878.
Setting [11] is: cineole alone, Escherichia coli P7847.
The mark [12] stands for this setting: cineole alone, Klebsiella pneumoniae H1893.

Consider two compounds from patent US11872216B2, “Pharmaceutical formulation comprising cineole and amoxicillin” (priority 2016, dated 2024).

`CC12CCC(CC1)C(C)(C)O2` [cineole, 1,8-cineole]: the “100% MIC Alone (cineole, second figure of the cell)” value in assay [1] (E. coli P933), in assay [2] (E. coli P956), in assay [3] (K. pneumoniae 112001), in assay [4] (K. pneumoniae 111878), in assay [5] (E. coli P7847) and in assay [6] (K. pneumoniae 111893) was 100 μl/ml each time. The “20% PIC” value stood at 1.3 ± 0.24 μl/ml in assay [1] (setting [7]); 1.2 ± 0.16 μl/ml in assay [2] (setting [8]); 0.7 ± 0.09 μl/ml in assay [3] (setting [9]); 0.4 ± 0.12 μl/ml in assay [4] (setting [10]); 1.2 ± 0.11 μl/ml in assay [5] (setting [11]); 0.6 ± 0.12 μl/ml in assay [6] (setting [12]). For the same compound, the “30% PIC” value in assay [1] (setting [7]) amounted to 2.3 ± 0.09 μl/ml; in assay [2] (setting [8]), 2.6 ± 0.12 μl/ml; in assay [3] (setting [9]), 3.1 ± 0.10 μl/ml; in assay [4] (setting [10]), 2.9 ± 0.12 μl/ml; in assay [5] (setting [11]), 2.7 ± 0.12 μl/ml; in assay [6] (setting [12]), 2.7 ± 0.09 μl/ml. The “40% PIC” value in assay [1] (setting [7]) is given as 6.8 ± 0.14 μl/ml; in assay [2] (setting [8]) it was 6.2 ± 0.20 μl/ml; in assay [3] (setting [9]) it was 6.9 ± 0.12 μl/ml; in assay [4] (setting [10]) it was 7.1 ± 0.12 μl/ml; in assay [5] (setting [11]), 6.5 ± 0.10 μl/ml; in assay [6] (setting [12]), 6.8 ± 0.09 μl/ml.

The term MIC denotes the least concentration at which growth counts as inhibited. As for `CC1(C)S[C@@H]2[C@H](NC(=O)[C@H](N)c3ccc(O)cc3)C(=O)N2[C@H]1C(=O)O` [amoxicillin, Amoxicillin], the MIC in assay [1] (Escherichia coli, E. coli P933, read-out: 100% MIC Alone (amoxicillin, first figure of the cell)) worked out at 50 µg/mL; in assay [2] (Escherichia coli, E. coli P956, read-out: 100% MIC Alone (amoxicillin, first figure of the cell)), 50 µg/mL; in assay [3] (Klebsiella pneumoniae, K. pneumoniae 112001, read-out: 100% MIC Alone (amoxicillin, first figure of the cell)), 50 µg/mL; in assay [4] (Klebsiella pneumoniae, K. pneumoniae 111878, read-out: 100% MIC Alone (amoxicillin, first figure of the cell)), 50 µg/mL; in assay [5] (Escherichia coli, E. coli P7847, read-out: 100% MIC Alone (amoxicillin, first figure of the cell)), 50 µg/mL; in assay [6] (Klebsiella pneumoniae, K. pneumoniae 111893, read-out: 100% MIC Alone (amoxicillin, first figure of the cell)), 50 µg/mL. Moreover, the “25% PIC” value worked out at 0.5 ± 0.10 µg/mL in assay [1] (amoxicillin alone, Escherichia coli P933); 0.7 ± 0.14 µg/mL in assay [2] (amoxicillin alone, Escherichia coli P956); 0.6 ± 0.14 µg/mL in assay [3] (amoxicillin alone, Klebsiella pneumoniae H2001); 0.9 ± 0.09 µg/mL in assay [4] (amoxicillin alone, Klebsiella pneumoniae H1878); 0.8 ± 0.17 µg/mL in assay [5] (amoxicillin alone, Escherichia coli P7847); 0.8 ± 0.12 µg/mL in assay [6] (amoxicillin alone, Klebsiella pneumoniae H1893). The IC50 was 1.3 ± 0.24 µg/mL in assay [1] (amoxicillin alone, Escherichia coli P933, read-out: 50% PIC); 1.1 ± 0.25 µg/mL in assay [2] (amoxicillin alone, Escherichia coli P956, read-out: 50% PIC); 1.3 ± 0.12 µg/mL in assay [3] (amoxicillin alone, Klebsiella pneumoniae H2001, read-out: 50% PIC); 1.6 ± 0.17 µg/mL in assay [4] (amoxicillin alone, Klebsiella pneumoniae H1878, read-out: 50% PIC); 1.5 ± 0.13 µg/mL in assay [5] (amoxicillin alone, Escherichia coli P7847, read-out: 50% PIC); 1.7 ± 0.09 µg/mL in assay [6] (amoxicillin alone, Klebsiella pneumoniae H1893, read-out: 50% PIC).
